Consider 4 compounds from patent US20130287890A1, “INHIBITOR OF THE PRODUCTION OF ADVANCED GLYCATION END PRODUCTS” (UENO FINE CHEMICALS INDUSTRY, LTD., priority 2012, published 2013).

Structures are written as SMILES.

One test deals with T1, human RAGE (Homo sapiens, UniProt Q15109).
T1 construct: human RAGE plasmid (including full-length human RAGE cDNA); expressed in transfected cells; host or cells: C6 glioma cells carrying pNF-κB-Luc plasmid and human RAGE plasmid
The test is described as follows: RAGE antagonist activity of reaction samples (37° C., 42 days) mixed with AGE-BSA, NF-κB luciferase assay in C6 glioma cells. The test is classed as cell-based, rat C6 glioma cells expressing human RAGE. The method, then:
(§1) Amino acid, carbohydrates and a phosphate buffer solution were charged in a 50 mL polypropylene centrifuge tube in each amount shown in Table 10, followed by sealing and stirring, and then the mixture was reacted in an incubator at 37° C. for 42 days. Next, the reactant was filtered through a 0.2 μm filter and the obtained filtrate was used as a sample. Amino acid and carbohydrates used are as follows:
Using Luciferase Assay System (manufactured by Promega Corporation), evaluation of RAGE antagonist activity was performed. (Day 1) According to the methods disclosed in Diabetes, 2006, vol. 55, pp. 2510-2522, C6 glioma cells into which pNF-κB-Luc plasmid (manufactured by Stratagene Corporation) and human RAGE plasmid (including full-length human RAGE cDNA) have been introduced were seeded at 100 μL/well into a 96-well plate and cultured in a CO2 incubator until the cells were confluent. For the culture, 10% FBS/DMEM medium was used. (Day 2) The medium was removed, and after wells were washed with 300 μL of serum-free DMEM medium, 100 μL of 0.1% FBS/DMEM medium was slowly added. Then, the medium was incubated overnight in a CO2 incubator. (Day 3) The sample was diluted using the medium, and 50 μL of the diluted sample, AGE-BSA in which AGE was formed with glyceraldehydes (50 μg/mL) as a control, and the mixture of diluted sample and AGE-BSA were added to wells. After incubation in a CO2 incubator for 4 hours, the medium was removed and wells were washed 2 times with 300 μL of PBS (−). Then, 25 μL of 1× lysis buffer was added on ice. After the plate was shaken for 15 seconds, 20 μL of lysate was charged in a new white plate. Further 100 μL of a luciferase assay reagent was added, and a […] was measured by a luminometer. Using 5 μL of lysate, quantitative determination of protein was also performed.
(§2) Biological proteins, carbohydrates and a phosphate buffer solution are charged in a 50 mL polypropylene centrifuge tube in each amount shown in Table 12, followed by sealing and stirring, and then the mixture was reacted in an incubator at 37° C. for 42 days. Next, the reactant was fractionated by centrifugation at 3,000 rpm for 3 hours using an ultrafiltration unit (VIVA SPIN 20, manufactured by Sartorius Corporation). The obtained low molecular weight fraction was used as a sample for determination of 3-DG, while the obtained high molecular weight fraction was used as a sample for the determination of fluorescent AGEs, pentosidine, CML, RAGE agonist activity and RAGE antagonist activity. Biological proteins and carbohydrates used are as follows:
(§3) In the same manner as in Test Example 4, except that the low molecular weight fraction prepared as mentioned above was used as a sample, quantitative determination of 3-DG was performed. In the same manner as in Test Example 4, except that the high molecular weight fraction was filtered through a 0.2 μm filter and the filtrate was used as a sample, fluorescent AGEs, pentosidine, CML, RAGE agonist activity and RAGE antagonist activity were evaluated.
Collagen, carbohydrates and a phosphate buffer solution were charged in a 50 mL polypropylene centrifuge tube in each amount shown in Table 14, followed by sealing and stirring, and then the mixture was reacted in an incubator at 37° C. for 42 days. Next, the reactant was fractionated by centrifugation at 3,000 rpm for 3 hours using an ultrafiltration unit (VIVA SPIN 20, manufactured by Sartorius Corporation). The obtained low molecular weight fraction was used as a sample for determination of 3-DG. Meanwhile, 0.4 g of a high molecular weight fraction and 8 mL of 6N hydrochloric acid were charged in an ampule and the air in the ampule was replaced with nitrogen, and then hydrolysis was performed at 110° C. for 16 hours in a heat block. After reaction, 8 mL of 5N sodium hydroxide was added, and pH was adjusted using 1N hydrochloric acid and 1N sodium hydroxide to make pH within a range of 7.2 to 7.6. […]

In a further test the test system is 3-DG. The test is described as follows: Quantitative determination of 3-DG (HPLC) after reaction of amino acid or biological protein with carbohydrates at 37° C. for 42 days. Format: biochemical. As to conditions: for 3-DG: 37° C., 42 days. The method, then: as §2, with “Amino acid or biological protein, carbohydrates” for “Biological proteins, carbohydrates”, “solution were” for “solution are”, “Table 8,” for “Table 12,”, “fluorescent AGEs. Amino acid, biological protein” for “fluorescent AGEs, pentosidine, CML, RAGE agonist activity and RAGE antagonist activity. Biological proteins”
In the same manner as in Test Example 1, except that the low molecular weight fraction prepared as mentioned above was used as a sample, quantitative determination of 3-DG was performed. In the same manner as in Test Example 2, except that the high molecular weight fraction prepared as mentioned above was used as a sample, determination of fluorescent AGEs was performed.
as §1
To 2 mL of a sample, the same amount of a 60% perchloric acid solution was added to deproteinize the sample. The sample was neutralized with 4 mL of an aqueous saturated sodium hydrogen carbonate solution and 0.8 mL of a 0.1% methanol solution of 2,3-diaminonaphthalene was added, and then the mixture was reacted at 4° C. for 16 hours. Next, the reactant was extracted with 4.4 mL of ethyl acetate, concentrated to dryness using an evaporator, dissolved in 5 mL of methanol, and then filtered through a 0.45 μm filter. The filtrate was subjected to high-performance liquid chromatography and 3-DG was quantitatively determined under the following measurement conditions.
Injection amount: 20 μL Column: TSK-GEL, ODS-80Ts (4.6×150 mm, manufactured by TOSOH CORPORATION) Column temperature: 30° C. Mobile phase: 50 mM phosphoric acid:methanol:acetonitrile=7:1.5:1.5 Flow rate: 1 mL/min.
as §2, §3
Collagen, carbohydrates and a phosphate buffer solution were charged in a 50 mL polypropylene centrifuge tube in each amount shown in Table 14, followed by sealing and stirring, and then the mixture was reacted in an incubator at 37° C. for 42 days. Next, the reactant was fractionated by centrifugation at 3,000 rpm for 3 hours using an ultrafiltration unit (VIVA SPIN 20, manufactured by Sartorius Corporation). […]

Setting [1] is: Test Example 4, amino acid + carbohydrate, mixture of sample and AGE-BSA, amount of protein 100 μg/mL, relative to control (AGE-BSA) = 1.
The mark [2] stands for this setting: Test Example 5, bovine serum albumin + carbohydrate, mixture of sample and AGE-BSA, protein 100 μg/mL, relative to control (AGE-BSA) = 1.
Where [3] appears, read: Test Example 5, human serum albumin + carbohydrate, mixture of sample and AGE-BSA, protein 100 μg/mL, relative to control (AGE-BSA) = 1.
Setting [4] is: Test Example 5, γ-globulin + carbohydrate, mixture of sample and AGE-BSA, protein 10 μg/mL, relative to control (AGE-BSA) = 1.
Where [5] appears, read: Test Example 6, collagen + carbohydrate, mixture of sample and AGE-BSA, protein 10 μg/mL, relative to control (AGE-BSA) = 1.
Where [6] appears, read: Test Example 3, amino acid (lysine:arginine 1:1) 0.4 g + glucose 1.8 g or maltitol 3.4 g.
[7] abbreviates: Test Example 3, bovine serum albumin 0.4 g + glucose 1.8 g or maltitol 3.4 g.
Where [8] appears, read: Test Example 4, amino acid 0.4 g + carbohydrate 1.8 g.
Setting [9] is: Test Example 5, bovine serum albumin 0.4 g + carbohydrate 1.8 g.
Setting [10] is: Test Example 5, human serum albumin 0.4 g + carbohydrate 1.8 g.
The mark [11] stands for this setting: Test Example 5, γ-globulin 0.4 g + carbohydrate 1.8 g.
Where [12] appears, read: Test Example 6, collagen 0.015 g + carbohydrate 1.8 g.
Where [13] appears, read: Test Example 5, bovine serum albumin, human serum albumin, γ-globulin, compared with sections containing glucose.
Setting [14] is: Test Example 6, collagen, compared with sections containing glucose and fructose.

T1 sequence (Q15109 23-404): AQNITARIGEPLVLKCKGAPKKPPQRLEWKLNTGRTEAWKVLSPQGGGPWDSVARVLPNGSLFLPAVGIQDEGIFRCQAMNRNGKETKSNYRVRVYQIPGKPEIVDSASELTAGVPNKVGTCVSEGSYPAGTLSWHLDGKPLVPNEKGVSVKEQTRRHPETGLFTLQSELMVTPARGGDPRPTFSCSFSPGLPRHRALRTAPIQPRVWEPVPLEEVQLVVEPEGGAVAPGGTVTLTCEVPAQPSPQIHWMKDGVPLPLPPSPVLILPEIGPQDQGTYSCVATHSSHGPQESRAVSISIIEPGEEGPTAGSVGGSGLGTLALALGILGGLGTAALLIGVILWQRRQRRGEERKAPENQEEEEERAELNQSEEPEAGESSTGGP

On to `O=C[C@H](O)[C@@H](O)[C@H](O)[C@H](O)CO` [Glucose], for which the RAGE antagonist activity at human RAGE (setting [1]) came out at 0.56; on human RAGE (setting [2]), 1.08; at human RAGE (setting [3]) it was 1.20; at human RAGE (setting [4]), 1.07; at human RAGE (setting [5]), 2.85. For the same compound, the 3-DG with 3-DG (setting [6]) is given as 22,761 nmol/1 g of protein; in the test with 3-DG (setting [7]), 29,938 nmol/1 g of protein; in the test with 3-DG (setting [8]), 8310 nmol/1 mL of reaction solution; in the test on 3-DG (setting [9]), 10253 nmol/1 mL of reaction solution; in the test on 3-DG (setting [10]), 2575 nmol/1 mL of reaction solution; in the test on 3-DG (setting [11]), 877 nmol/1 mL of reaction solution. In the test on 3-DG (setting [12]), the 3-DG is listed as 232 nmol/1 mL of reaction solution.

On to `OC[C@@H](O)[C@@H](O)[C@H](O)[C@@H](O)CO` [Sorbitol], for which the RAGE antagonist activity is reported as 0.66 on human RAGE (setting [1]); “decreased” at human RAGE (Test Example 4, amino acid, compared with the test section 2 containing fructose); 1.08 on human RAGE (setting [2]); “decreased” on human RAGE (setting [13]); 1.01 on human RAGE (setting [3]); “decreased” at human RAGE (Test Example 5, test sections 3 and 6 (bovine serum albumin, human serum albumin), compared with sections containing fructose). The RAGE antagonist activity on human RAGE (setting [4]) is 0.90; on human RAGE (setting [5]) it was 1.22; on human RAGE (setting [14]), “decreased”. Further, the 3-DG with 3-DG (setting [8]) is 13 nmol/1 mL of reaction solution; in the test with 3-DG (setting [9]), 33 nmol/1 mL of reaction solution; in the test on 3-DG (setting [10]), 78 nmol/1 mL of reaction solution; with 3-DG (setting [11]), 21 nmol/1 mL of reaction solution; in the test on 3-DG (setting [12]), 24 nmol/1 mL of reaction solution. For the same compound, the “production of 3-DG” value in the test with 3-DG (Test Example 4, amino acid, compared with sections containing glucose and fructose) was “significantly decreased”; with 3-DG (Test Example 5, bovine serum albumin, human serum albumin, γ-globulin, compared with sections containing fructose), “significantly decreased”; with 3-DG (setting [13]) it was “decreased”; in the test on 3-DG (setting [14]) it was “significantly decreased”.

Regarding `O=C(CO)[C@@H](O)[C@H](O)[C@H](O)CO` [Fructose], the RAGE antagonist activity at human RAGE (setting [1]) turned out to be 0.70; on human RAGE (setting [2]), 1.15; at human RAGE (setting [3]) it was 1.33; on human RAGE (setting [4]) it was 1.08; on human RAGE (setting [5]), 2.49. For the same compound, the 3-DG in the test with 3-DG (setting [8]) is listed as 904 nmol/1 mL of reaction solution; in the test on 3-DG (setting [9]) it was 5316 nmol/1 mL of reaction solution; in the test with 3-DG (setting [10]), 2358 nmol/1 mL of reaction solution; in the test on 3-DG (setting [11]), 877 nmol/1 mL of reaction solution; in the test with 3-DG (setting [12]) it was 1447 nmol/1 mL of reaction solution.

Take `OC[C@@H](O)[C@@H](O[C@H]1O[C@H](CO)[C@@H](O)[C@H](O)[C@H]1O)[C@H](O)[C@@H](O)CO` [Maltitol]: the 3-DG in the test on 3-DG (setting [6]) was 127 nmol/1 g of protein; with 3-DG (setting [7]), 1,181 nmol/1 g of protein. In the test with 3-DG (Test Example 3, amino acids and bovine serum albumin, compared with sections containing glucose), the “production of 3-DG” value was “significantly decreased”.
